Patent publication US20250361230A1, “LATS Inhibitors and Uses Thereof” (The USA, as Represented by the Secretary, Dept. of Heath …, priority 2022, published 2025)
pIC50: −log10 of the molar value.

Key:
[1] = molecular target: T1, LATS1 Kinase-NanoLuc fusion in HEK-293 cells (Homo sapiens, UniProt O95835); test: NanoBRET target engagement assay in transfected HEK-293 cells, LATS1; type: cell-based; details: cellular
T1 construct: host or cells: HEK-293
T1 sequence (O95835 1-1130): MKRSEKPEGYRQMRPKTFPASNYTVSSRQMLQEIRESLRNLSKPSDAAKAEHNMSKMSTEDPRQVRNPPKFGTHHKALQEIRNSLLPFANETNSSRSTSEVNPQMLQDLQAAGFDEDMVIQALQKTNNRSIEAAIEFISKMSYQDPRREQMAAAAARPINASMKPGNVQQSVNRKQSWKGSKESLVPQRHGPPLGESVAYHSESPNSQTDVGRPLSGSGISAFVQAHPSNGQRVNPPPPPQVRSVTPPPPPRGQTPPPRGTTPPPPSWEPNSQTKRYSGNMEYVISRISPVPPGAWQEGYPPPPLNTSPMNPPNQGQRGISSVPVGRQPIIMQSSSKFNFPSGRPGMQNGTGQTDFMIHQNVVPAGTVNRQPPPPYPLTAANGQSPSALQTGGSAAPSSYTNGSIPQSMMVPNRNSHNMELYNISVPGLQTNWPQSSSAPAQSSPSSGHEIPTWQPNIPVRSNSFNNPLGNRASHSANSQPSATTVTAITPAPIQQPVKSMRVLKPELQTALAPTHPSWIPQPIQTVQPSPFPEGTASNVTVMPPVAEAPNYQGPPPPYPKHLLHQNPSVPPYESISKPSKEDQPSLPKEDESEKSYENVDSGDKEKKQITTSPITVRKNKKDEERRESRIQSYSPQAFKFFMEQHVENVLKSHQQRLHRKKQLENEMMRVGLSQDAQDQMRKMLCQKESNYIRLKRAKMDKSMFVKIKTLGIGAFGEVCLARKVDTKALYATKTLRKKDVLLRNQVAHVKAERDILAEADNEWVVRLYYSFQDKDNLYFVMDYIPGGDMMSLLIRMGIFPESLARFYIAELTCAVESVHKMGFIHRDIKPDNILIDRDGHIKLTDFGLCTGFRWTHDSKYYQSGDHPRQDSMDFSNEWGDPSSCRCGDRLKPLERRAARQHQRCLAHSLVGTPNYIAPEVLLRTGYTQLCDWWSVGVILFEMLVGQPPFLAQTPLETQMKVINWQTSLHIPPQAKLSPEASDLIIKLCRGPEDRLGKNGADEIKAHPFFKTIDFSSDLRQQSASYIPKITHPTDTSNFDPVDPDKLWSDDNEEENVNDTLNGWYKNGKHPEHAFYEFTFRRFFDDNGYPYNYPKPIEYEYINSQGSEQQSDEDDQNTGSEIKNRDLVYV
Method in brief: (§1)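 HEK-293 cells transiently transfected with kinase-NanoLuc fusion plasmid for 22-24 h, then incubated with compound and NanoBRET tracer for 1 hour at 37° C. After substrate plus extracellular NanoLuc inhibitor addition, 460 and 600 nm emissions read; no-tracer-corrected BRET ratio used to derive IC50 values.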

[2] = molecular target: T2, AKT Kinase-NanoLuc fusion in HEK-293 cells (Homo sapiens, UniProt P31749); test: NanoBRET target engagement assay in transfected HEK-293 cells, AKT; type: cell-based; details: cellular; read-out: AKT (Cellular) IC50
T2 construct: host or cells: HEK-293
T2 sequence (P31749 whole entry, the tested form may be a part): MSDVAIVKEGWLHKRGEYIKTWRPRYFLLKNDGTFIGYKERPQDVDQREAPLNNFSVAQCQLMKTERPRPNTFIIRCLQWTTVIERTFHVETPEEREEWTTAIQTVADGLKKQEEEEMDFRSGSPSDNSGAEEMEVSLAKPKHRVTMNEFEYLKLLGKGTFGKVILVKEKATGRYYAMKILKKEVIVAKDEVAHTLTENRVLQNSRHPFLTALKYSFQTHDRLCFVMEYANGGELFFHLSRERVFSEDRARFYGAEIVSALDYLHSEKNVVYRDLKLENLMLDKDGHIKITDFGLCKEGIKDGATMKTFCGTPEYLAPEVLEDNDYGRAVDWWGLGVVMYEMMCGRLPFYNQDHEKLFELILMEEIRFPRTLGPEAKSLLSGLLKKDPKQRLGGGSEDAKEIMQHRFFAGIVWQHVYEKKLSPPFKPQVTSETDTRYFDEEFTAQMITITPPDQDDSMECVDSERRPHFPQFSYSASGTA
Method in brief: as §1

Cc1cc(-c2ccnc3[nH]cc(C#N)c23)ccc1[C@@]1(O)[C@H](C)CN(C2CCS(=O)(=O)CC2)C[C@@H]1C [Compound 2003, 4-(4-((3S,4s,5R)-1-(1,1-dioxidotetrahydro-2H-thiopyran-4-yl)-4-hydroxy-3,5-dimethylpiperidin-4-yl)-3-methylphenyl)-1H-pyrrolo[2,3-b]pyridine-3-carbonitrile]
pIC50 [1]: 7.82
pIC50 [2]: 4.55
